Assay results taken from ChEMBL document CHEMBL1142159, “Aph(3')-IIc, an aminoglycoside resistance determinant from Stenotrophomonas maltophilia” (2007).
≈ marks a conversion by molar mass, not a printed value.

Columns and labels:
[1] = tested on: Stenotrophomonas maltophilia; test: Antimicrobial activity against Stenotrophomonas maltophilia K279a mutant; type: functional
[2] = tested on: Stenotrophomonas maltophilia; test: Antimicrobial activity against Stenotrophomonas maltophilia K279a (aph FS) mutant; type: functional
[3] = tested on: Escherichia coli; test: Antimicrobial activity against recombinant Escherichia coli DH5alpha expressing pBAD; type: functional
[4] = tested on: Escherichia coli; test: Antimicrobial activity against recombinant Escherichia coli DH5-alpha expressing pBAD [aph(3')-2] in the presence of arabinose; type: functional; conditions: DH5alpha
[5] = tested on: Escherichia coli; test: Antimicrobial activity against recombinant Escherichia coli DHalpha expressing pBAD [aph(3')-2]; type: functional; conditions: DH5alpha
[6] = tested on: Escherichia coli; test: Antimicrobial activity against recombinant Escherichia coli DH5-alpha expressing pBAD in the presence of arabinose; type: functional; conditions: DH5alpha
[7] = tested on: Escherichia coli; conditions: DH5alpha
[8] = tested on: Escherichia coli; conditions: DH5alpha; remark: listed apart in the source
[9] = tested on: Escherichia coli; conditions: DH5alpha; remark: listed apart in the source
[10] = tested on: Escherichia coli; conditions: DH5alpha; remark: listed apart in the source

| Molecule | MIC [1] [µg/mL] | MIC [2] [µg/mL] | MIC [3] [µg/mL] | MIC [4] [µg/mL] | MIC [5] [µg/mL] | MIC [6] [µg/mL] | MIC [7] [µg/mL] | MIC [8] [µg/mL] | MIC [9] [µg/mL] | MIC [10] [µg/mL] |
| --- | --- | --- | --- | --- | --- | --- | --- | --- | --- | --- |
| NCC[C@H](O)C(=O)N[C@@H]1C[C@H](N)[C@@H](O[C@H]2O[C@H](CN)[C@@H](O)[C@H](O)[C@H]2O)[C@H](O)[C@H]1O[C@H]1O[C@H](CO)[C@@H](O)[C@H](N)[C@H]1O [AMIKACIN] | 64 (≈ 109 µM) | 64 (≈ 109 µM) | 0.5 | 4 | 0.5 | 0.5 | – | – | – | – |
| NC[C@@H]1O[C@H](O[C@H]2[C@@H](O)[C@H](O[C@@H]3[C@@H](O)[C@H](N)C[C@H](N)[C@H]3O[C@H]3O[C@H](CN)[C@@H](O)[C@H](O)[C@H]3N)O[C@@H]2CO)[C@H](N)[C@@H](O)[C@@H]1O [FRAMYCETIN] | 512 (≈ 833 µM) | 64 (≈ 104 µM) | 0.5 | 64 | 0.5 | 0.5 | – | – | – | – |
| NC[C@H]1O[C@H](O[C@H]2[C@H](O)[C@@H](O[C@H]3O[C@H](CO)[C@@H](O)[C@H](N)[C@H]3O)[C@H](N)C[C@@H]2N)[C@H](O)[C@@H](O)[C@@H]1O [KANAMYCIN] | 256 (≈ 528 µM) | 8 (≈ 16.5 µM) | – | – | – | – | – | – | – | – |
| NC[C@@H]1O[C@H](O[C@H]2[C@@H](O)[C@H](O[C@@H]3[C@@H](O)[C@H](N)C[C@H](N)[C@H]3O[C@H]3O[C@H](CO)[C@@H](O)C[C@H]3N)O[C@@H]2CO)[C@H](N)[C@@H](O)[C@@H]1O[C@H]1O[C@H](CO)[C@@H](O)[C@H](O)[C@@H]1O [LIVIDOMYCIN] | 128 (≈ 168 µM) | 128 (≈ 168 µM) | 4 | 8 | 4 | 4 | – | – | – | – |
| NC[C@@H]1O[C@H](O[C@H]2[C@@H](O)[C@H](O[C@@H]3[C@@H](O)[C@H](N)C[C@H](N)[C@H]3O[C@H]3O[C@H](CO)[C@@H](O)[C@H](O)[C@H]3N)O[C@@H]2CO)[C@H](N)[C@@H](O)[C@@H]1O [PAROMOMYCIN] | 256 (≈ 416 µM) | 64 (≈ 104 µM) | 0.25 | 128 | 0.25 | 0.25 | – | – | – | – |
| CN[C@@H]1[C@@H](O)[C@@H](O[C@@H]2[C@@H](O)[C@H](O[C@H]3OC(CN)=CC[C@H]3N)[C@@H](N)C[C@H]2N)OC[C@]1(C)O [SISOMICIN] | 8 (≈ 17.9 µM) | 8 (≈ 17.9 µM) | 0.125 | 0.125 | 0.125 | 0.125 | – | – | – | – |
| NC[C@H]1O[C@H](O[C@H]2[C@H](O)[C@@H](O[C@H]3O[C@H](CO)[C@@H](O)[C@H](N)[C@H]3O)[C@H](N)C[C@@H]2N)[C@H](N)C[C@@H]1O [TOBRAMYCIN] | 32 (≈ 68.4 µM) | 32 (≈ 68.4 µM) | 0.5 | 8 | 0.5 | 0.5 | – | – | – | – |
| GENTAMICIN | 16 | 16 | – | – | – | – | 1 | 1 | 1 | 1 |
| butirosin | 8 | 1 | – | – | – | – | 0.125 | 4 | 0.125 | 0.125 |
